Results: ChEMBL document CHEMBL3351767, “The discovery of Polo-like kinase 4 inhibitors: design and optimization of spiro[cyclopropane-1,3'[3H]indol]-2'(1'H).ones as orally bioavailable antitumor agents” (J Med Chem, 2015)
pIC50: −log10 of the molar value. Values after ≈ are worked out from the molar mass of the structure shown.

How the values were obtained:
[1] = Protein binding in plasma (unknown origin); assay type: ADME, cell-free; conditions: read-out: PPB (converted)
[2] = target: Cytochrome P450 2C9 (Homo sapiens, UniProt P11712); assay: Inhibition of CYP2C9 (unknown origin) using MFC substrate after 45 mins by fluorescence assay; assay type: ADME
Chain of Cytochrome P450 2C9 (P11712 whole entry): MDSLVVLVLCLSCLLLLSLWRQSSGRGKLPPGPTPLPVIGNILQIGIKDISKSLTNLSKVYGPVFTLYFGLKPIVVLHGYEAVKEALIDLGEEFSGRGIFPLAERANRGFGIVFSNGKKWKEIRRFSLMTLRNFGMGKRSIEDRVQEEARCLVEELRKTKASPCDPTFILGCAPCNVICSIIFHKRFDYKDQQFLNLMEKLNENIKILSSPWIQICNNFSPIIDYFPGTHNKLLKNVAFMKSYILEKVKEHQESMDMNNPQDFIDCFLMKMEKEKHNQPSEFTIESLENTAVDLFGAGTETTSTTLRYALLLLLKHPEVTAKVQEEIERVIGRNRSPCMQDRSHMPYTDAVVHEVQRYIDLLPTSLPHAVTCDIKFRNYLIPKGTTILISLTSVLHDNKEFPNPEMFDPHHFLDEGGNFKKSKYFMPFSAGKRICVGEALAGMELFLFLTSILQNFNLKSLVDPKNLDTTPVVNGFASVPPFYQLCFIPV

[3] = target: T1, Receptor-type tyrosine-protein kinase FLT3 (Homo sapiens, UniProt P36888); assay: Inhibition of FLT3 (unknown origin) by FRET-based homogeneous assay
T1 sequence (P36888 whole entry): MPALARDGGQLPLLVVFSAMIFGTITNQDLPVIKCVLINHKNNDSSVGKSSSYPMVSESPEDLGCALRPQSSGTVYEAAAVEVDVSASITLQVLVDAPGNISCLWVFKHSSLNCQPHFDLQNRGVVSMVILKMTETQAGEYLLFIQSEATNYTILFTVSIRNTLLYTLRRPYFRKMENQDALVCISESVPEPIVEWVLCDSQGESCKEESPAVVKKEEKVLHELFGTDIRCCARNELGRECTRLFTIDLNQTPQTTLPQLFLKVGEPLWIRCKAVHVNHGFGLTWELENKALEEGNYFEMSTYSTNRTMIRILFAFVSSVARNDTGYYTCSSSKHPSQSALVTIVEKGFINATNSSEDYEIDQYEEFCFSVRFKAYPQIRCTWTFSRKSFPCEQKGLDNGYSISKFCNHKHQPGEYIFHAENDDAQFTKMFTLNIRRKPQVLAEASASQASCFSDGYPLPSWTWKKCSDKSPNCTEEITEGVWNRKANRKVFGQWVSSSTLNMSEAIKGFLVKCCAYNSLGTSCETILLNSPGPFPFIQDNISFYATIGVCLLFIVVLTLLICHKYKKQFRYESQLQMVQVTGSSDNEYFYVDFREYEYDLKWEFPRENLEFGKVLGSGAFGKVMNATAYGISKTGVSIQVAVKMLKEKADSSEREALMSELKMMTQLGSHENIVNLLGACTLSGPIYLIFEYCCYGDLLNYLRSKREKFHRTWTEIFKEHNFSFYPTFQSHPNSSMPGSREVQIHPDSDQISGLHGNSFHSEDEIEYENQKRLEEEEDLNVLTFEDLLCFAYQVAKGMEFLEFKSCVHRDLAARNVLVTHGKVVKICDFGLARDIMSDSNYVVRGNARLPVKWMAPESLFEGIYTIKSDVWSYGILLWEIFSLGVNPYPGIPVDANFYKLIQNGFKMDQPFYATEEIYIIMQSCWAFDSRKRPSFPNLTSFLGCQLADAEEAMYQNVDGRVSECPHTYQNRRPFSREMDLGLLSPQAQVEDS

[4] = Aqueous solubility at pH 7.4; assay type: physicochemical; conditions: buffer
[5] = target: Cytochrome P450 2C19 (Homo sapiens, UniProt P33261); assay: Inhibition of CYP2C19 (unknown origin) using MFC substrate after 30 mins by fluorescence assay; assay type: ADME
Chain of Cytochrome P450 2C19 (P33261 whole entry): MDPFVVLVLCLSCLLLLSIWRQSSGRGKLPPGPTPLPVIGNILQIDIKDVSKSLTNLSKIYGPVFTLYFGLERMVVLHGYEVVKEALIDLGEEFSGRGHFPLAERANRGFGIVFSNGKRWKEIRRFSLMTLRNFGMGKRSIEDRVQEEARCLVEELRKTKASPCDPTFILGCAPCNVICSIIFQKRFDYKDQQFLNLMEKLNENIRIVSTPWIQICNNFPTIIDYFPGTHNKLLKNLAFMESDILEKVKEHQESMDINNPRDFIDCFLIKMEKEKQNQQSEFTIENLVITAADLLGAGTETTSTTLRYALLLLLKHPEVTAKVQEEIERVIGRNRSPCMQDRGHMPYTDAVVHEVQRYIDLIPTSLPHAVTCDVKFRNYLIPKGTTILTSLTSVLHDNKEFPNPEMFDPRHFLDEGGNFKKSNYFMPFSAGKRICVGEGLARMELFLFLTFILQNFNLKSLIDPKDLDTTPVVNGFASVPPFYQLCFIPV

[6] = target: Cytochrome P450 3A4 (Homo sapiens, UniProt P08684); assay: Inhibition of CYP3A4 (unknown origin) using BFC substrate after 30 mins by fluorescence assay; assay type: ADME
Chain of Cytochrome P450 3A4 (P08684 whole entry): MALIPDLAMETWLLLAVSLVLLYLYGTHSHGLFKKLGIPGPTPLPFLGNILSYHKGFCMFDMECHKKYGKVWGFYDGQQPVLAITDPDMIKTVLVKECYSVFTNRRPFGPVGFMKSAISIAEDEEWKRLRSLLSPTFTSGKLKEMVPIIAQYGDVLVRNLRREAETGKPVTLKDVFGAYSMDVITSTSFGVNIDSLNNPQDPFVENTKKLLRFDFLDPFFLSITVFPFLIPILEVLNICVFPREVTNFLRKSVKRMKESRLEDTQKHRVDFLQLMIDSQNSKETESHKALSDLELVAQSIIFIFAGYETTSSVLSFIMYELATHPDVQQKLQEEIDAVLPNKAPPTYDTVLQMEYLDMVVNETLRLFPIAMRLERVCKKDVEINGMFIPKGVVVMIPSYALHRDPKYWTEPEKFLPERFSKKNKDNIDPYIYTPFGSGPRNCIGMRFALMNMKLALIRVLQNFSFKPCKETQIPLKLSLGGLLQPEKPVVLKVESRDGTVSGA

[7] = target: T2, Cytochrome P450 1A2 (Homo sapiens, UniProt P05177); assay: Inhibition of CYP1A2 (unknown origin) using CEC substrate after 15 mins by fluorescence assay; assay type: ADME
T2 sequence (P05177 whole entry): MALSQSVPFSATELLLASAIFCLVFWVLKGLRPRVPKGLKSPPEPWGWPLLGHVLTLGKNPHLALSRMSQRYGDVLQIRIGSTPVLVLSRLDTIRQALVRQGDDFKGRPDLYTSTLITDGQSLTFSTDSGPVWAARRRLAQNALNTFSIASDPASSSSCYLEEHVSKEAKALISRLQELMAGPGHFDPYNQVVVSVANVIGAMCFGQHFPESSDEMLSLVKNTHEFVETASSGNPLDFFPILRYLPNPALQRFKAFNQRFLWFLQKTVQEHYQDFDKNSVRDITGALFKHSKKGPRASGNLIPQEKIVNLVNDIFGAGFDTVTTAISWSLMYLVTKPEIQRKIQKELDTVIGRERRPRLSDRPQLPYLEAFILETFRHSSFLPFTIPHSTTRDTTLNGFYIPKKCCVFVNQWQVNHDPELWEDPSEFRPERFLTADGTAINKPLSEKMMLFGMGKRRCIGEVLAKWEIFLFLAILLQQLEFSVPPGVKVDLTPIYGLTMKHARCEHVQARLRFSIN

[8] = AUC in SCID mouse at 50 mg/kg, ip after 8 hrs by LCMS/MS method; assay type: ADME, organism-based; design: time < 8 hr, dose 50 mg/kg, route intraperitoneal; conditions: plasma
[9] = Cmax in SCID mouse at 50 mg/kg, ip after 8 hrs by LCMS/MS method; assay type: ADME, organism-based; design: dose 50 mg/kg, route intraperitoneal; conditions: in vivo
[10] = test system: MCF7; assay: Cytotoxicity against human MCF7 cells after 5 days by SRB assay; assay type: functional; conditions: MCF7, 120 h
[11] = target: Cytochrome P450 2D6 (Homo sapiens, UniProt P10635); assay: Inhibition of CYP2D6 (unknown origin) using AMMC substrate after 45 mins by fluorescence assay; assay type: ADME
Chain of Cytochrome P450 2D6 (P10635 whole entry): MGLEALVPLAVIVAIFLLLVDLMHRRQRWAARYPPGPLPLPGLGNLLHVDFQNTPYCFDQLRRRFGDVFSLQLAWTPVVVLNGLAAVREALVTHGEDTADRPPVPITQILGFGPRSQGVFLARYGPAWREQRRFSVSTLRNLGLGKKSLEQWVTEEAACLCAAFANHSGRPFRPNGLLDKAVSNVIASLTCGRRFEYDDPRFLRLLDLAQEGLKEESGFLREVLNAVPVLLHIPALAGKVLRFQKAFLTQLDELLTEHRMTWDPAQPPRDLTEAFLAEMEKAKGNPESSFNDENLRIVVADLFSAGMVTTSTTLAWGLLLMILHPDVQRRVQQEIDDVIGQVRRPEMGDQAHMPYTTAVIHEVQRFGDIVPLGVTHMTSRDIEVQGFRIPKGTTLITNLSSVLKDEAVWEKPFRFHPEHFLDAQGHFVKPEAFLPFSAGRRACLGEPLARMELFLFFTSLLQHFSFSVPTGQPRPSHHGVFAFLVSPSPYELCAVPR

[12] = target: Vascular endothelial growth factor receptor 2 (Homo sapiens, UniProt P35968); assay: Inhibition of KDR (unknown origin) by FRET-based homogeneous assay
Chain of Vascular endothelial growth factor receptor 2 (P35968 whole entry): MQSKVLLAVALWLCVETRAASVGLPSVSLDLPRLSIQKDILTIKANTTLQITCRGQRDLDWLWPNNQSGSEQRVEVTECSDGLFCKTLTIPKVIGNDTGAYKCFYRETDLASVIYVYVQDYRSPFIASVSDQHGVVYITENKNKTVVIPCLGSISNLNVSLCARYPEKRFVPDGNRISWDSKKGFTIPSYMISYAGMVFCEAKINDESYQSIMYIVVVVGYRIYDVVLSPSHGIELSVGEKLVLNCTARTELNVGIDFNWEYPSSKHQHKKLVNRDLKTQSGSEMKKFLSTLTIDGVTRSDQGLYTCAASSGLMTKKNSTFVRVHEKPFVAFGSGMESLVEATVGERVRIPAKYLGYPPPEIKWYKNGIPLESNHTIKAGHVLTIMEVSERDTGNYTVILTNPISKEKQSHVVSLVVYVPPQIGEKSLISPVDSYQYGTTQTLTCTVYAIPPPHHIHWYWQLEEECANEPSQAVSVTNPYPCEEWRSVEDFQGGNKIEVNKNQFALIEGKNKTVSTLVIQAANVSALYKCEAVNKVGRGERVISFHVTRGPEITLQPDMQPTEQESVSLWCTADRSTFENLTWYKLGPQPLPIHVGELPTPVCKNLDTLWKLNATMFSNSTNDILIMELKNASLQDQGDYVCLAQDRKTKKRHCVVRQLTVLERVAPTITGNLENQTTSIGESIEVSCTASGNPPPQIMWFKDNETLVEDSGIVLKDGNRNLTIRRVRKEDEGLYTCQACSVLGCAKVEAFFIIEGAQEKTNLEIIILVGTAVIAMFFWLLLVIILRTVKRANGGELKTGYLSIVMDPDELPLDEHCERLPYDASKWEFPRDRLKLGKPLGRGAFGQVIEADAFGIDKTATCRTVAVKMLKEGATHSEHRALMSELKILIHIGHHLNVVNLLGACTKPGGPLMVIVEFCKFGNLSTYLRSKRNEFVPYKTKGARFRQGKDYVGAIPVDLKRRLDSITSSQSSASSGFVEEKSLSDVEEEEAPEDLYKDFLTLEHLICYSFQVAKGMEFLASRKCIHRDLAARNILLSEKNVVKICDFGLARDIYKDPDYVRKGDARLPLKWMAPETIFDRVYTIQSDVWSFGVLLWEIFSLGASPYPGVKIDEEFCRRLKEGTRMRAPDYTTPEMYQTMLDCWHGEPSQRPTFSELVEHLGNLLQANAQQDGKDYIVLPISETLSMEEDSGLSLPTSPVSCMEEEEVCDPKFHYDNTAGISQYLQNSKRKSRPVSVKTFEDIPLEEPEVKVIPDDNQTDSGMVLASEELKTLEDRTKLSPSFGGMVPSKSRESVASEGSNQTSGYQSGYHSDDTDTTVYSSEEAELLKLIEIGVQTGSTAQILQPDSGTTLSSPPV

[13] = Half life in human liver microsomes at 1 uM in presence of NADPH by LC-MS method; assay type: ADME
[14] = Half life in mouse liver microsomes at 1 uM in presence of NADPH by LC-MS method; assay type: ADME
[15] = test system: MDA-MB-468; assay: Cytotoxicity against human MDA-MB-468 cells after 5 days by SRB assay; assay type: functional; conditions: MDA-MB-468, 120 h
[16] = Cytotoxicity against human SKBR3 cells after 5 days by SRB assay; assay type: functional; conditions: SK-BR-3, 120 h
[17] = Cmax in SCID mouse at 25 mg/kg, po by LCMS/MS method; assay type: ADME, organism-based; design: dose 25 mg/kg, route oral; conditions: in vivo
[18] = target: Serine/threonine-protein kinase PLK1 (Homo sapiens, UniProt P53350); assay: Inhibition of PLK1 (unknown origin) by FRET-based homogeneous assay
Chain of Serine/threonine-protein kinase PLK1 (P53350 whole entry): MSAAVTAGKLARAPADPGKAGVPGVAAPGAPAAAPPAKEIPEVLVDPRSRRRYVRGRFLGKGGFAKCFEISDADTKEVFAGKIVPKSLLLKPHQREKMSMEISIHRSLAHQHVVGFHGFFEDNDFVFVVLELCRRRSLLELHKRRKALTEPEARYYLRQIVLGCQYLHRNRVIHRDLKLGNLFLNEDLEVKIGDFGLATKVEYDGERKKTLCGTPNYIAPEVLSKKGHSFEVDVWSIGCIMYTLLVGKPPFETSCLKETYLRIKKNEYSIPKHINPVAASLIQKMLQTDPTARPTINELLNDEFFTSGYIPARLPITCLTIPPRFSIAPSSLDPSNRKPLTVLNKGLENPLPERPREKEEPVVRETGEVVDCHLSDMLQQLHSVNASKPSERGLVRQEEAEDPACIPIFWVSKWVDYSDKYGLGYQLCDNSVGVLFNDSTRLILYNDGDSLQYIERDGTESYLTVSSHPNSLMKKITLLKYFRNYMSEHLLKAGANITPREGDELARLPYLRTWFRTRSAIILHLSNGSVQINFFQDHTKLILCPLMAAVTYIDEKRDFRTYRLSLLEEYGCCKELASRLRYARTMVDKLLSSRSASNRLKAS

[19] = target: Serine/threonine-protein kinase PLK2 (Homo sapiens, UniProt Q9NYY3); assay: Inhibition of PLK2 (unknown origin) by FRET-based homogeneous assay
Chain of Serine/threonine-protein kinase PLK2 (Q9NYY3 whole entry): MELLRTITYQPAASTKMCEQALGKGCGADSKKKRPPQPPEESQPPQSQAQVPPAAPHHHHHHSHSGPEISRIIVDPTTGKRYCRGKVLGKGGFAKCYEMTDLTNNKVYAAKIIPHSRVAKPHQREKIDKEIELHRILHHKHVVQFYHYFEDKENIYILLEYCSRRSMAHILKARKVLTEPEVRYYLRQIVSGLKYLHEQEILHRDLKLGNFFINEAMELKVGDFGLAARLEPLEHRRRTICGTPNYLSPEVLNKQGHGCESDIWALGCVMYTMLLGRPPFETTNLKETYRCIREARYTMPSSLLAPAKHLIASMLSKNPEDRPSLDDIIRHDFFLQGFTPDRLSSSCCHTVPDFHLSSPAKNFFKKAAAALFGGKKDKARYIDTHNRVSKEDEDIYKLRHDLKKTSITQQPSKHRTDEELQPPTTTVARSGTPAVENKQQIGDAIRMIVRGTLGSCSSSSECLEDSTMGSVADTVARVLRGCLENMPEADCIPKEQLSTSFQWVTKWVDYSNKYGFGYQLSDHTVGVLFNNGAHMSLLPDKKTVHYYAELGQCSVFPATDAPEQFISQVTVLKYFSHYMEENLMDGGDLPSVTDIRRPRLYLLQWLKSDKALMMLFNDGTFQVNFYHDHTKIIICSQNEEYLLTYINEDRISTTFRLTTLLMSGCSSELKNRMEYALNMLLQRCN

[20] = test system: MDA-MB-231; assay: Cytotoxicity against human MDA-MB-231 cells after 5 days by SRB assay; assay type: functional; conditions: MDA-MB-231, 120 h
[21] = target: Serine/threonine-protein kinase PLK3 (Homo sapiens, UniProt Q9H4B4); assay: Inhibition of PLK3 (unknown origin) by FRET-based homogeneous assay
[22] = AUC in SCID mouse at 25 mg/kg, po by LCMS/MS method; assay type: ADME, organism-based; design: dose 25 mg/kg, route oral; conditions: plasma
[23] = test system: Mus musculus; assay: Toxicity in human MDA-MB-468 cells xenografted mouse assessed as reduction in body weight at 25 mg/kg, po QD for 21 days; assay type: organism-based; design: dose 25 mg/kg, route oral; conditions: in vivo, 504 h

Row | Compound | fraction unbound [1] | pIC50 [2] | pIC50 [3] | solubility [4] [µg/mL] | pIC50 [5] | pIC50 [6] | pIC50 [7] | AUC at 8 h [8] [ng·h/mL] | Cmax [9] [ng/mL] | GI50 [10] [nM] | pIC50 [11] | pIC50 [12] | half-life at 1 µM [13] [min] | half-life at 1 µM [14] [min] | GI50 [15] [nM] | GI50 [16] [nM] | Cmax [17] [ng/mL] | pIC50 [18] | GI50 [20] [nM] | AUC [22] [ng·h/mL] | other results
1 | O=C1Nc2ccccc2[C@]12C[C@H]2c1ccc2cn[nH]c2c1 (relative stereo) | 0.17 | < 5.00 | 5.49 | 8 (≈ 29.1 µM) | 5.00 | < 5.00 | < 5.00 | 1620 | 1200 | 16000 | < 5.00 | < 5.00 | > 60 | 49 | 14000 | – | – | – | – | – | –
2 | O=C1Nc2ccccc2[C@]12C[C@H]2c1ccc2c(/C=C/c3ccncc3)n[nH]c2c1 (relative stereo) | 0.045 | 7.52 | 7.48 | 0.4 (≈ 1.06 µM) | 6.59 | < 6.00 | 5.85 | 2900 | 1700 | 600 | 6.15 | 5.89 | > 60 | 18 | 360 | 20300 | 470 | < 4.00 | 680 | 650 | pIC50 [19]: < 4.00; pIC50 [21]: < 4.00
3 | CN(C)Cc1ccc(/C=C/c2n[nH]c3cc([C@@H]4C[C@@]45C(=O)Nc4ccccc45)ccc23)cc1 (relative stereo) | 0.053 | < 6.00 | – | 1.7 (≈ 3.91 µM) | < 6.00 | < 5.00 | < 5.00 | 7200 | 2600 | < 10 | 5.51 | 6.96 | > 60 | 13 | < 10 | 17800 | 290 | < 4.00 | < 10 | 310 | Activity [23]: Non-toxic; pIC50 [19]: < 4.00; pIC50 [21]: < 4.00
4 | COc1ccc2c(c1)[C@]1(C[C@H]1c1ccc3c(/C=C/c4ccc(CN(C)C)cc4)n[nH]c3c1)C(=O)N2 (relative stereo) | – | 6.07 | 7.72 | – | 6.12 | < 6.00 | < 5.00 | – | – | < 1 | < 5.00 | 6.04 | – | – | 10 | 6400 | 350 | – | < 10 | 730 | Activity [23]: Non-toxic
